Laboratory results from patent publication US20250262222A1, “HETEROCYCLIC COMPOUNDS, COMPOSITIONS THEREOF, AND METHODS OF TREATMENT THEREWITH” (BeiGene Switzerland GmbH, priority 2022, published 2025).

Tested on: pERK1/2(THR202/TYR204) level in AsPC-1 cell line
Assay: KRAS G12D pERK assay
Type: cell-based
Details: AsPC-1 cells, 2 h compound treatment, HTRF
Description: AsPC-1 cell line was used in this study. Cells were maintained in RPMI-1640 supplemented with 10% fetal bovine serum (Thermo Fisher), 50 units/mL penicillin and streptomycin (Thermo Fisher) and kept at 37° C. in a humidified atmosphere of 5% CO2 in air. Cells were reinstated from frozen stocks that were laid down within 30 passages from the original cells purchased. 30000 cells per well were seeded into a 96-well plate and incubated overnight. Cells were treated with a 10-point dilution series. The final compound concentration is from 0 to 10 μM. After 2 h compound treatment, cells were lysed, and the pERK1/2(THR202/TYR204) level in the cell lysates was detected by HTRF kit (Cisbio). In brief, a total of 16 μL of cell lysate from each well of a 96-well plate was transferred to a 384-well white assay plate. Lysate from each well was incubated with 2 μL of Eu3+-cryptate (donor) labeled anti-phospho-ERK1/2 and 2 μL of D2 (acceptor) labeled anti-phospho-ERK1/2 antibodies (Cisbio) overnight in dark at room temperature. When donor and acceptor are in close proximity, excitation of the donor with laser triggers a Fluorescence Resonance Energy Transfer (FRET) towards the acceptor, which in turn fluoresces at 655 nm wavelength. FRET signals were measured using a PHERAstar FSX reader (BMG Labtech). IC50 determination was performed by fitting the curve of percent inhibition versus the log of the inhibitor concentration using Dotmatics.

## Nc1cc(Cl)c(C(F)(F)F)c(-c2nc3c4c(nc(OCC56COCC(C5)C6)nc4c2F)N2C[C@H]4CC[C@H](N4)[C@H]2CCO3)c1 [Example 67, 3-((6aR,7S,10R)-13-((3-oxabicyclo[3.1.1]heptan-1-yl)methoxy)-1-fluoro-5,6,6a,7,8,9,10,11-octahydro-4-oxa-3,11a,12,14,15-pentaaza-7,10-methanocyclohepta[4,5]cyclo-octa[1,2,3-de]naphthalen-2-yl)-5-chloro-4-(trifluoromethyl)aniline]
Homo sapiens, ASPC1, 2 h
  IC50: 169 nM

## Cc1c(F)c(N)cc(-c2nc3c4c(nc(OCC5(C(F)F)COC5)nc4c2F)N2C[C@H]4CC[C@H](N4)[C@H]2CCO3)c1C(F)(F)F [Example 31, 5-((6aR,7S,10R)-13-((3-(difluoromethyl)oxetan-3-yl)methoxy)-1-fluoro-5,6,6a,7,8,9,10,11-octahydro-4-oxa-3,11a,12,14,15-pentaaza-7,10-methanocyclohepta[4,5]cyclo-octa[1,2,3-de]naphthalen-2-yl)-2-fluoro-3-methyl-4-(trifluoromethyl)aniline]
Homo sapiens, ASPC1, 2 h
  IC50: 162 nM

## COCC1(COc2nc3c4c(nc(-c5cc(N)cc(Cl)c5C(F)(F)F)c(F)c4n2)OCC[C@@H]2[C@@H]4CC[C@H](CN32)N4)COC1 [Example 62, 3-chloro-5-((6aR,7S,10R)-1-fluoro-13-((3-(methoxymethyl)oxetan-3-yl)methoxy)-5,6,6a,7,8,9,10,11-octahydro-4-oxa-3,11a,12,14,15-pentaaza-7,10-methanocyclohepta[4,5]cyclo-octa[1,2,3-de]naphthalen-2-yl)-4-(trifluoromethyl)aniline]
Homo sapiens, ASPC1, 2 h
  IC50: 346 nM

## Nc1cc(Cl)c(C(F)(F)F)c(-c2nc3c4c(nc(OCC56COCC(F)(C5)C6)nc4c2F)N2C[C@H]4CC[C@H](N4)[C@H]2CCO3)c1 [Example 37, 3-chloro-5-((6aR,7S,10R)-1-fluoro-13-((5-fluoro-3-oxabicyclo[3.1.1]heptan-1-yl)methoxy)-5,6,6a,7,8,9,10,11-octahydro-4-oxa-3,11a,12,14,15-pentaaza-7,10-methanocyclohepta[4,5]cyclo-octa[1,2,3-de]naphthalen-2-yl)-4-(trifluoromethyl)aniline]
Homo sapiens, ASPC1, 2 h
  IC50: 97 nM

## Nc1cc(Cl)c(C(F)(F)F)c(-c2nc3c4c(nc(OC[C@@]56CCCN5C[C@H](F)C6)nc4c2F)N2C[C@H]4CC[C@H](N4)C2CCO3)c1 (single isomer, unassigned) [Example 24]
  IC50: 4.4 nM

## CC1(COc2nc3c4c(nc(-c5cc(N)cc(Cl)c5C(F)(F)F)c(F)c4n2)OCC[C@@H]2[C@@H]4CC[C@H](CN32)N4)COC1 [Example 66, 3-chloro-5-((6aR,7S,10R)-1-fluoro-13-((3-methyloxetan-3-yl)methoxy)-5,6,6a,7,8,9,10,11-octahydro-4-oxa-3,11a,12,14,15-pentaaza-7,10-methanocyclohepta[4,5]cyclo-octa[1,2,3-de]naphthalen-2-yl)-4-(trifluoromethyl)aniline]
Homo sapiens, ASPC1, 2 h
  IC50: 145 nM

## Nc1cc(Cl)c(C(F)(F)F)c(-c2nc3c4c(nc(OC[C@@]56CCCN5C[C@H](F)C6)nc4c2F)N2CC4CCC(N4)C2CO3)c1 (stereo partly drawn) [Example 10, 3-chloro-5-(1-fluoro-12-(((2R,7aS)-2-fluorotetrahydro-1H-pyrrolizin-7a(5H)-yl)methoxy)-5a,6,7,8,9,10-hexahydro-5H-4-oxa-3,10a,11,13,14-pentaaza-6,9-methanonaphtho[1,8-ab]heptalen-2-yl)-4-(trifluoromethyl)aniline]
Homo sapiens, ASPC1, 2 h
  IC50: 58 nM

## Nc1cc(Cl)c(C(F)(F)F)c(-c2nc3c4c(nc(OC[C@@]56CCCN5C[C@H](F)C6)nc4c2F)N2C[C@H]4CC[C@H](N4)C2CCO3)c1 (single isomer, unassigned) [Example 25]
  IC50: 504 nM

## Nc1cc(Cl)c(C(F)(F)F)c(-c2nc3c4c(nc(OCC56COC(C(F)(F)F)(C5)C6)nc4c2F)N2C[C@H]4CC[C@H](N4)[C@H]2CCO3)c1 [Example 53, 3-chloro-5-((6aR,7S,10R)-1-fluoro-13-((1-(trifluoromethyl)-2-oxabicyclo[2.1.1]hexan-4-yl)methoxy)-5,6,6a,7,8,9,10,11-octahydro-4-oxa-3,11a,12,14,15-pentaaza-7,10-methanocyclohepta[4,5]cyclo-octa[1,2,3-de]naphthalen-2-yl)-4-(trifluoromethyl)aniline]
Homo sapiens, ASPC1, 2 h
  IC50: 211 nM

## COC1(COc2nc3c4c(nc(-c5cc(N)cc(Cl)c5C(F)(F)F)c(F)c4n2)OCC[C@@H]2[C@@H]4CC[C@H](CN32)N4)COC1 [Example 61, 3-chloro-5-((6aR,7S,10R)-1-fluoro-13-((3-methoxyoxetan-3-yl)methoxy)-5,6,6a,7,8,9,10,11-octahydro-4-oxa-3,11a,12,14,15-pentaaza-7,10-methanocyclohepta[4,5]cyclo-octa[1,2,3-de]naphthalen-2-yl)-4-(trifluoromethyl)aniline]
Homo sapiens, ASPC1, 2 h
  IC50: 332 nM

## CN1C(=O)OC2(C)CC1(COc1nc3c4c(nc(-c5cc(N)cc(Cl)c5C(F)(F)F)c(F)c4n1)OCC[C@@H]1[C@@H]4CC[C@H](CN31)N4)C2 [Example 47, 5-((((6aR,7S,10R)-2-(5-amino-3-chloro-2-(trifluoromethyl)phenyl)-1-fluoro-5,6,6a,7,8,9,10,11-octahydro-4-oxa-3,11a,12,14,15-pentaaza-7,10-methanocyclohepta[4,5]cyclo-octa[1,2,3-de]naphthalen-13-yl)oxy)methyl)-1,4-dimethyl-2-oxa-4-azabicyclo[3.1.1]heptan-3-one]
Homo sapiens, ASPC1, 2 h
  IC50: 1930 nM

## Cc1cc(N)cc(-c2nc3c4c(nc(OCC56COC(C)(C5)C6)nc4c2F)N2C[C@H]4CC[C@H](N4)[C@H]2CCO3)c1C(F)(F)F [Example 28, 3-((6aR,7S,10R)-1-fluoro-13-((1-methyl-2-oxabicyclo[2.1.1]hexan-4-yl)methoxy)-5,6,6a,7,8,9,10,11-octahydro-4-oxa-3,11a,12,14,15-pentaaza-7,10-methanocyclohepta[4,5]cyclo-octa[1,2,3-de]naphthalen-2-yl)-5-methyl-4-(trifluoromethyl)aniline]
Homo sapiens, ASPC1, 2 h
  IC50: 152 nM

## CCc1cc(N)cc(-c2nc3c4c(nc(OCC56COC(C5)C6)nc4c2F)N2C[C@H]4CC[C@H](N4)[C@H]2CCO3)c1C(F)(F)F [Example 68, 3-((6aR,7S,10R)-13-((2-oxabicyclo[2.1.1]hexan-4-yl)methoxy)-1-fluoro-5,6,6a,7,8,9,10,11-octahydro-4-oxa-3,11a,12,14,15-pentaaza-7,10-methanocyclohepta[4,5]cycloocta[1,2,3-de]naphthalen-2-yl)-5-ethyl-4-(trifluoromethyl)aniline]
Homo sapiens, ASPC1, 2 h
  IC50: 548 nM

## CCOC(=O)N1CC(C)(COc2nc3c4c(nc(-c5cc(N)cc(Cl)c5C(F)(F)F)c(F)c4n2)OCC[C@@H]2[C@@H]4CC[C@H](CN32)N4)C1 [Example 33, ethyl 3-((((6aR,7S,10R)-2-(5-amino-3-chloro-2-(trifluoromethyl)phenyl)-1-fluoro-5,6,6a,7,8,9,10,11-octahydro-4-oxa-3,11a,12,14,15-pentaaza-7,10-methanocyclohepta[4,5]cyclo-octa[1,2,3-de]naphthalen-13-yl)oxy)methyl)-3-methylazetidine-1-carboxylate]
Homo sapiens, ASPC1, 2 h
  IC50: 286 nM

## Cc1cc(N)cc(-c2nc3c4c(nc(OCC56CCC(C)(C5)OC6)nc4c2F)N2C[C@H]4CC[C@H](N4)[C@H]2CCO3)c1C(F)(F)F [Example 51, 3-((6aR,7S,10R)-1-fluoro-13-((1-methyl-2-oxabicyclo[2.2.1]heptan-4-yl)methoxy)-5,6,6a,7,8,9,10,11-octahydro-4-oxa-3,11a,12,14,15-pentaaza-7,10-methanocyclohepta[4,5]cyclo-octa[1,2,3-de]naphthalen-2-yl)-5-methyl-4-(trifluoromethyl)aniline]
Homo sapiens, ASPC1, 2 h
  IC50: 272 nM

## Cc1nc(N)cc(-c2nc3c4c(nc(OCC56COC(C5)C6)nc4c2F)N2CC4CCC(N4)[C@H]2CCO3)c1C(F)(F)F (stereo in doubt) [Example 42, 4-((6aR,7R,10S)-13-((2-oxabicyclo[2.1.1]hexan-4-yl)methoxy)-1-fluoro-5,6,6a,7,8,9,10,11-octahydro-4-oxa-3,11a,12,14,15-pentaaza-7,10-methanocyclohepta[4,5]cyclo-octa[1,2,3-de]naphthalen-2-yl)-6-methyl-5-(trifluoromethyl)pyridin-2-amine]
Homo sapiens, ASPC1, 2 h
  IC50: 1850 nM

## Oc1cc(Cl)c(C2CC2)c(-c2nc3c4c(nc(OCC56COC(C5)C6)nc4c2F)N2C[C@H]4CC[C@H](N4)[C@H]2CCO3)c1 [Example 38, 3-((6aR,7S,10R)-13-((2-oxabicyclo[2.1.1]hexan-4-yl)methoxy)-1-fluoro-5,6,6a,7,8,9,10,11-octahydro-4-oxa-3,11a,12,14,15-pentaaza-7,10-methanocyclohepta[4,5]cyclo-octa[1,2,3-de]naphthalen-2-yl)-5-chloro-4-cyclopropylphenol]
Homo sapiens, ASPC1, 2 h
  IC50: 1870 nM

## Nc1cc(Cl)c(C(F)(F)F)c(-c2nc3c4c(nc(OCC56CCC(COC5)C6)nc4c2F)N2C[C@H]4CC[C@H](N4)[C@H]2CCO3)c1 [Example 45, 3-((6aR,7S,10R)-13-((3-oxabicyclo[3.2.1]octan-1-yl)methoxy)-1-fluoro-5,6,6a,7,8,9,10,11-octahydro-4-oxa-3,11a,12,14,15-pentaaza-7,10-methanocyclohepta[4,5]cyclo-octa[1,2,3-de]naphthalen-2-yl)-5-chloro-4-(trifluoromethyl)aniline]
Homo sapiens, ASPC1, 2 h
  IC50: 221 nM
